Earlier results, collected in patent US20060122095A1, “Mucus formulation for mucosal surfaces and uses thereof” (priority 2002, published 2006).
“Also recorded” adds a separate entry of the source.

How the values were obtained:
HIV-1 [1] = tested on: HIV-1
HIV-1 [2] = settings: after complete washing away of unbound drug
[3] = tested on: different cell types in culture; settings: even at extremely high concentrations
[4] = multiple routes of administration, different species of animals
HIV-1 [5] = settings: previous evaluations of UC-781 formulations

Structure (SMILES): CC(C)=CCOc1cc(NC(=S)c2ccoc2C)ccc1Cl [UC-781, N-[4-chloro-3-(3-methyl-2-butenyloxy)phenyl]]
- effectiveness against strains of HIV-1 that encode known NNRTI resistance mutations (HIV-1 [1]; compared with wild type isolates): equally effective
- HIV-1 inhibition effect, inactivating concentration (HIV-1 [1]; primary wild type isolates of clades A through G, in vitro): nanomolar range; also recorded: nanomolar concentrations
- resistance of pre-treated cells to infection (memory effect) (HIV-1 [2]): remained resistant to infection for several days
- toxic effect on cells in culture [3]: no toxic effect
- bioavailability [4]: poor bioavailability
- solubility in water: limited solubility in water
- activity in explant model (HIV-1 [5]): remained active
